*1 amine or outer side, *2 acyl side, *3 side chain or, on linkers, in order; H or OH if unused. Where a SMILES comes first, the peptide text is derived from it. Side-chain parts run from the residue outwards. [ ]: non-standard residue; d: D form. The star is where a group is joined. C18 diacid = O=C(O)CCCCCCCCCCCCCCCCC(=O)*; C16 diacid = O=C(O)CCCCCCCCCCCCCCC(=O)*; γGlu = O=C(O)[C@H](CCC(=O)[*:2])N[*:1]; NMeI = CC[C@H](C)[C@H](NC)C(=O)O; Pentanoyl = CCCCC(=O)*; Aib = CC(C)(N)C(=O)O; Propionyl = CCC(=O)*; Butyryl = CCCC(=O)*
Legend:
[1] = molecular target: T1, human CRF2a receptor (Homo sapiens, UniProt Q13324); assay: Activity at human CRF2a receptor, cAMP functional assay in TeloHEAC cells; type: cell-based; details: TeloHEAC cells stably expressing human CRF2a receptor, relative to urocortin 2 (100 nM = 100%)
T1 construct: expressed in transfected cells; host or cells: TeloHEAC cells
T1 sequence (Q13324 1-411): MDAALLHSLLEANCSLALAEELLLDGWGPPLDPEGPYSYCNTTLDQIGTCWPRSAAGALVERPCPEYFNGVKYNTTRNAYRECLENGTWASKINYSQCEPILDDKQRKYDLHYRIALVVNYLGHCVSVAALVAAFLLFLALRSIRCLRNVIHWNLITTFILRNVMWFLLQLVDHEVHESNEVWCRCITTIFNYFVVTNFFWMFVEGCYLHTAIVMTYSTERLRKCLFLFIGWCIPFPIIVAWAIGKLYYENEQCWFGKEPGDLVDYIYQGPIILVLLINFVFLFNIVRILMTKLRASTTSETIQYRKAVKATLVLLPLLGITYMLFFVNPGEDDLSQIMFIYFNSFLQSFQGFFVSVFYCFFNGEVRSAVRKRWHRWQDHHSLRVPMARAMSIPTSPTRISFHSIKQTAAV
Procedure: Agonism of compounds for human corticotropin-releasing factor 2a (CRF2a receptor) was determined by a functional assay measuring cAMP modulation upon treatment of TeloHEAC cells stably expressing human CRF2a receptor. Compounds were dissolved at 0.5 mM in 100% DMSO and serially diluted (1:2) in 100% DMSO for 16 dilutions. 20 nL of each dilution was then transferred to 384-well assay plate using an acoustic droplet ejection instrument. 5 μL of compound buffer (1×HBSS; 20 mM HEPES,) were then added to each well. Prior to use, frozen cells were thawed quickly at 37° C. and washed (5 min at 900 rpm) with 20 mL cell buffer (1×HBSS; 20 mM HEPES). Cells were resuspended in cell buffer added with 2 mM IBMX and adjusted to a cell density of […]. 5 μL cells (final dell density: 10000 cells/well) were dispensed in the compound-containing 384-well assay plate and incubated for 30 minutes 37° C. The cAMP level in treated cells was determined using the Cisbio 62AM4PEC kit according to manufacturer's instruction. Finally, plates were incubated for 1 h at room temperature before measuring the fluorescence ratio between 665/620 nm. The percent activity value (E %) was calculated by setting 100 nM of urocortin 2 (UCN2) as 100%. The in vitro potency of the compounds was quantified by determining the concentrations that caused 50% activation of maximal response (EC50) relative to urocortin 2.

[2] = molecular target: T2, CFR1R receptor (Homo sapiens, UniProt P34998); assay: Activity at anti-target CFR1R receptor, cAMP assay in CRF1R-overexpression CHO-K1 cells; type: cell-based; details: 100% = Sauvagine at 100 nM; for EC50: cAMP
T2 construct: host or cells: CHO-K1 (clone 2)
T2 sequence (P34998 24-415): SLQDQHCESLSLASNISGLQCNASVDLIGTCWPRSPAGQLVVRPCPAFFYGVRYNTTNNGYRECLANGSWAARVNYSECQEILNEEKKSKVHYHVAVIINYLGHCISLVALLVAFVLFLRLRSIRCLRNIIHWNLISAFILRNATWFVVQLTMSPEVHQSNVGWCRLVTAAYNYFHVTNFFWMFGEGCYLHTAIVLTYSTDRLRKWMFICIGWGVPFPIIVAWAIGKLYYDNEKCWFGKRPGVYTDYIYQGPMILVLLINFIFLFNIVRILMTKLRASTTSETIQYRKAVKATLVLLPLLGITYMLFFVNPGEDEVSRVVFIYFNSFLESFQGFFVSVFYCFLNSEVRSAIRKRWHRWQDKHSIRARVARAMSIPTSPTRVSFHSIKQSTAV
How it was run: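 Grow clone 2 to near confluence at 37° C. under 5% CO2 in F12 (Hams) with 10% FBS and G418, harvest, and freeze in 10% DMSO. Thaw and plate at 4000 cells/well. Then proceed per the TeloHAEC method, normalising to Sauvagine 100 nM as maximum.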

| SMILES | EC50 [1] | Emax (% I) [2] | EC50 [2] |
| --- | --- | --- | --- |
| CCCCC(=O)N[C@H](C(=O)N[C@@H](CC(C)C)C(=O)N[C@@H](CO)C(=O)N[C@@H](CC(C)C)C(=O)N[C@@H](CC(=O)O)C(=O)N[C@@H](C(=O)N1CCC[C@H]1C(=O)N[C@H](C(=O)N[C@@H](CCCCN)C(=O)N[C@@H](CC(C)C)C(=O)N[C@@H](CCCCNC(=O)CC[C@H](NC(=O)CCCCCCCCCCCCCCC(=O)O)C(=O)O)C(=O)N[C@@H](CCC(N)=O)C(=O)NC(C)(C)C(=O)N[C@@H](CC(C)C)C(=O)N[C@@H](CC(C)C)C(=O)N[C@@H](CCCCN)C(=O)N[C@@H](CCC(N)=O)C(=O)N[C@@H](CCC(=O)O)C(=O)N[C@@H](CCCNC(=N)N)C(=O)N[C@@H](CCC(N)=O)C(=O)N[C@@H](CCCCN)C(=O)N[C@@H](CCCCN)C(=O)N[C@@H](CCC(N)=O)C(=O)N[C@@H](CCCNC(=N)N)C(=O)N[C@@H](CCC(=O)O)C(=O)N[C@@H](CCC(N)=O)C(=O)N[C@@H](C)C(=O)N[C@@H](CCC(=O)O)C(=O)N[C@@H](CCCCN)C(=O)N[C@@H](CC(N)=O)C(=O)N[C@H](C(=O)N[C@@H](CCC(N)=O)C(=O)N[C@H](C(=O)N[C@@H](CC(C)C)C(=O)N[C@@H](CCC(=O)O)C(=O)N[C@@H](CCC(N)=O)C(=O)N[C@H](C(N)=O)C(C)C)[C@@H](C)CC)C(C)C)[C@@H](C)CC)C(C)C)C(C)C [compound 22] (Pentanoyl-VLSLD[dV]PIKLK([γGlu-C16 diacid])Q[Aib]LLKQERQKKQREQAEKNVQILEQV-NH2) | 4.44 nM | 3 % I | > 250 nM |
| CCC(=O)N[C@H](C(=O)N[C@@H](CC(C)C)C(=O)N[C@@H](CO)C(=O)N[C@@H](CC(C)C)C(=O)N[C@@H](CC(=O)O)C(=O)N[C@@H](C(=O)N1CCC[C@H]1C(=O)N[C@H](C(=O)N[C@@H](CCCCN)C(=O)N[C@@H](CC(C)C)C(=O)N[C@@H](CCCCNC(=O)CC[C@H](NC(=O)CCCCCCCCCCCCCCC(=O)O)C(=O)O)C(=O)N[C@@H](CCCCN)C(=O)N[C@H](C(=O)N[C@@H](CC(C)C)C(=O)N[C@@H](CC(C)C)C(=O)N[C@@H](CCC(=O)O)C(=O)N[C@@H](CCC(N)=O)C(=O)N[C@@H](CCC(=O)O)C(=O)N[C@@H](CCCCN)C(=O)N[C@@H](CCC(N)=O)C(=O)N[C@@H](CCCCN)C(=O)N[C@@H](CCCCN)C(=O)N[C@@H](CCC(N)=O)C(=O)N[C@@H](CCCNC(=N)N)C(=O)N[C@@H](CCC(=O)O)C(=O)N[C@@H](CCC(N)=O)C(=O)N[C@@H](C)C(=O)N[C@@H](CCC(=O)O)C(=O)N[C@H](C(=O)N[C@@H](CC(N)=O)C(=O)N[C@@H](CCCCN)C(=O)N[C@@H](CCC(N)=O)C(=O)N[C@H](C(=O)N[C@@H](CC(C)C)C(=O)N[C@@H](C)C(=O)N[C@@H](CCC(N)=O)C(=O)N[C@H](C(N)=O)C(C)C)[C@@H](C)CC)[C@@H](C)O)[C@@H](C)CC)[C@@H](C)CC)C(C)C)C(C)C [compound 35] (Propionyl-VLSLD[dV]PIKLK([γGlu-C16 diacid])KILLEQEKQKKQREQAETNKQILAQV-NH2) | 0.23 nM | 13 % I | > 250 nM |
| CCCC(=O)N[C@H](C(=O)N[C@@H](CC(C)C)C(=O)N[C@@H](CO)C(=O)N[C@@H](CC(C)C)C(=O)N[C@@H](CC(=O)O)C(=O)N[C@@H](C(=O)N1CCC[C@H]1C(=O)N[C@H](C(=O)N[C@@H](CCCCN)C(=O)N[C@@H](CC(C)C)C(=O)N[C@@H](CCCCNC(=O)CC[C@H](NC(=O)CCCCCCCCCCCCCCC(=O)O)C(=O)O)C(=O)N[C@@H](CCCCN)C(=O)N[C@H](C(=O)N[C@@H](CC(C)C)C(=O)N[C@@H](CC(C)C)C(=O)N[C@@H](CCC(=O)O)C(=O)N[C@@H](CCC(N)=O)C(=O)N[C@@H](CCC(=O)O)C(=O)N[C@@H](CCCCN)C(=O)N[C@@H](CCC(N)=O)C(=O)N[C@@H](CCCCN)C(=O)N[C@@H](CCCCN)C(=O)N[C@@H](CCC(N)=O)C(=O)N[C@@H](CCCNC(=N)N)C(=O)N[C@@H](CCC(=O)O)C(=O)N[C@@H](CCC(N)=O)C(=O)N[C@@H](C)C(=O)N[C@@H](CCC(=O)O)C(=O)N[C@H](C(=O)N[C@@H](CC(N)=O)C(=O)N[C@@H](CCCCN)C(=O)N[C@@H](CCC(N)=O)C(=O)N[C@H](C(=O)N[C@@H](CC(C)C)C(=O)N[C@@H](C)C(=O)N[C@@H](CCC(N)=O)C(=O)N[C@H](C(N)=O)C(C)C)[C@@H](C)CC)[C@@H](C)O)[C@@H](C)CC)[C@@H](C)CC)C(C)C)C(C)C [compound 36] (Butyryl-VLSLD[dV]PIKLK([γGlu-C16 diacid])KILLEQEKQKKQREQAETNKQILAQV-NH2) | 0.14 nM | 22 % I | > 250 nM |

Continued by falling EC50 [1], values first:

| EC50 [1] | Emax (% I) [2] | EC50 [2] | SMILES |
| --- | --- | --- | --- |
| 0.33 nM | 35 % I | > 250 nM | CC[C@H](C)[C@H](NC)C(=O)N[C@H](C(=O)N[C@@H](CC(C)C)C(=O)N[C@@H](CO)C(=O)N[C@@H](CC(C)C)C(=O)N[C@@H](CC(=O)O)C(=O)N[C@@H](C(=O)N1CCC[C@H]1C(=O)N[C@H](C(=O)N[C@@H](CCCCN)C(=O)N[C@@H](CC(C)C)C(=O)N[C@@H](CCCCNC(=O)CC[C@H](NC(=O)CCCCCCCCCCCCCCCCC(=O)O)C(=O)O)C(=O)N[C@@H](CCC(N)=O)C(=O)N[C@H](C(=O)N[C@@H](CC(C)C)C(=O)N[C@@H](CC(C)C)C(=O)N[C@@H](CCCCN)C(=O)N[C@@H](CCC(N)=O)C(=O)N[C@@H](CCC(=O)O)C(=O)N[C@@H](CCCNC(=N)N)C(=O)N[C@@H](CCC(N)=O)C(=O)N[C@@H](CCCCN)C(=O)N[C@@H](CCCCN)C(=O)N[C@@H](CCC(N)=O)C(=O)N[C@@H](CCCNC(=N)N)C(=O)N[C@@H](CCC(=O)O)C(=O)N[C@@H](CCC(N)=O)C(=O)N[C@@H](C)C(=O)N[C@@H](CCC(=O)O)C(=O)N[C@@H](CCCCN)C(=O)N[C@@H](CC(N)=O)C(=O)NC(C)(C)C(=O)N[C@@H](CCC(N)=O)C(=O)N[C@H](C(=O)N[C@@H](CC(C)C)C(=O)N[C@@H](CCC(=O)O)C(=O)N[C@@H](CCC(N)=O)C(=O)N[C@H](C(N)=O)C(C)C)[C@@H](C)CC)[C@@H](C)CC)[C@@H](C)CC)C(C)C)C(C)C [compound 23] (H-[NMeI]VLSLD[dV]PIKLK([γGlu-C18 diacid])QILLKQERQKKQREQAEKN[Aib]QILEQV-NH2) |
| 0.04 nM | 37 % I | > 250 nM | CC[C@H](C)[C@H](NC)C(=O)N[C@H](C(=O)N[C@@H](CC(C)C)C(=O)N[C@@H](CO)C(=O)N[C@@H](CC(C)C)C(=O)N[C@@H](CC(=O)O)C(=O)N[C@@H](C(=O)N1CCC[C@H]1C(=O)N[C@H](C(=O)N[C@@H](CCCCN)C(=O)N[C@@H](CC(C)C)C(=O)N[C@@H](CCCCNC(=O)CC[C@H](NC(=O)CCCCCCCCCCCCCCCCC(=O)O)C(=O)O)C(=O)N[C@@H](CCC(N)=O)C(=O)N[C@H](C(=O)N[C@@H](CC(C)C)C(=O)N[C@@H](CC(C)C)C(=O)N[C@@H](CCCCN)C(=O)N[C@@H](CCC(N)=O)C(=O)N[C@@H](CCC(=O)O)C(=O)N[C@@H](CCCNC(=N)N)C(=O)N[C@@H](CCC(N)=O)C(=O)N[C@@H](CCCCN)C(=O)N[C@@H](CCCCN)C(=O)N[C@@H](CCC(N)=O)C(=O)N[C@@H](CCCNC(=N)N)C(=O)N[C@@H](CCC(=O)O)C(=O)N[C@@H](CCC(N)=O)C(=O)N[C@@H](C)C(=O)N[C@@H](CCC(=O)O)C(=O)N[C@@H](CCCCN)C(=O)N[C@@H](CC(N)=O)C(=O)N[C@@H](C)C(=O)N[C@@H](CCC(N)=O)C(=O)N[C@H](C(=O)N[C@@H](CC(C)C)C(=O)N[C@@H](CCC(=O)O)C(=O)N[C@@H](CCC(N)=O)C(=O)N[C@H](C(N)=O)C(C)C)[C@@H](C)CC)[C@@H](C)CC)[C@@H](C)CC)C(C)C)C(C)C [compound 24] (H-[NMeI]VLSLD[dV]PIKLK([γGlu-C18 diacid])QILLKQERQKKQREQAEKNAQILEQV-NH2) |
